In PubChem BioAssay (NCI):
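Growth conditions: 96-well plates. Treatment: test compound, 48 hours, 5 concentrations. Analysis: linear interpolation between bracketing concentrations; unreached endpoints set to highest concentration. The concentration for 50% growth inhibition is given as GI50. TGI denotes the concentration required for complete inhibition of growth.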

Experiments:
Assay in all cases: NCI tumour cell line growth inhibition, 48 h
HCT-116 colon = test system: HCT-116 colon
OVCAR-4 ovarian = test system: OVCAR-4 ovarian
SF-295 CNS = test system: SF-295 CNS
SK-OV-3 ovarian = test system: SK-OV-3 ovarian
LOX IMVI melanoma = test system: LOX IMVI melanoma
COLO 205 colon = test system: COLO 205 colon
HOP-92 NSCLC = test system: HOP-92 NSCLC
SW-620 colon = test system: SW-620 colon
NCI/ADR-RES ovarian = test system: NCI/ADR-RES ovarian

| Compound | TGI (HCT-116 colon) [µM] | TGI (OVCAR-4 ovarian) [µM] | TGI (SF-295 CNS) [µM] | TGI (SK-OV-3 ovarian) [µM] | TGI (LOX IMVI melanoma) [µM] | TGI (COLO 205 colon) [µM] | TGI (HOP-92 NSCLC) [µM] | TGI (SW-620 colon) [µM] | GI50 (HCT-116 colon) [µM] | GI50 (OVCAR-4 ovarian) [µM] | GI50 (SF-295 CNS) [µM] | GI50 (SK-OV-3 ovarian) [µM] | GI50 (LOX IMVI melanoma) [µM] | GI50 (COLO 205 colon) [µM] | GI50 (HOP-92 NSCLC) [µM] | GI50 (SW-620 colon) [µM] | GI50 (NCI/ADR-RES ovarian) [µM] | TGI (NCI/ADR-RES ovarian) [µM] |
| --- | --- | --- | --- | --- | --- | --- | --- | --- | --- | --- | --- | --- | --- | --- | --- | --- | --- | --- |
| O=[N+]([O-])c1cc(C(F)(F)F)cc([N+](=O)[O-])c1CCl | 2.46 | 3.69 | 10.8 | 14.6 | 0.274 | 4.14 | 19.1 | 1.63 | – | – | – | – | – | – | – | – | – | – |
| Oc1ccccc1/C=C/c1csnn1 | > 100 | > 100 | > 100 | > 100 | 99.1 | > 100 | > 100 | > 100 | – | – | – | – | – | – | – | – | – | – |
| COc1cc2c(c(OC)c1OC)-c1ccc(SC)c(=O)cc1C(CO)C2 (configuration not stated) | – | > 100 | > 100 | 31.8 | 19.8 | – | > 100 | > 100 | < 0.01 | < 0.01 | < 0.01 | < 0.01 | < 0.01 | < 0.01 | < 0.01 | < 0.01 | – | – |
| Fc1ccc2c(c1)C1=NN(c3ccccc3)C(F)C1CO2 (configuration not stated) | > 50 | 17.4 | 17.1 | > 50 | 24.1 | 30.9 | 23.7 | 23.6 | 10.7 | 7.72 | 6.45 | 25.3 | 10.5 | – | 9.55 | 9.95 | 7.57 | 18.9 |
| Nc1ccnc(=O)[nH]1 | > 100 | > 100 | > 100 | > 100 | > 100 | > 100 | > 100 | > 100 | – | – | – | – | – | – | – | – | – | – |
| CC(=O)CC(=O)OC1CC(C)CCC1C(C)C (configuration not stated) | 80.1 | > 100 | > 100 | > 100 | > 100 | > 100 | > 100 | > 100 | – | – | – | – | – | – | – | – | – | – |
| OC(c1ccccc1)(c1ccccc1)c1ccncc1 | > 100 | > 100 | > 100 | > 100 | > 100 | > 100 | > 100 | > 100 | – | – | – | – | – | – | – | – | – | – |
| CCc1cc(C(=O)OC)cn1C(=N)c1ccc(Cl)cc1 | > 100 | > 100 | > 100 | > 100 | > 100 | > 100 | > 100 | > 100 | – | – | – | – | – | – | – | – | – | – |
| C=C(C)C(=O)O[C@H]1CC(=C)[C@@H]2C[C@H](O)[C@](O)(CCl)[C@@H]2[C@H]2OC(=O)C(=C)[C@@H]21 | 3.19 | 4.01 | 26.4 | 30.2 | 3.39 | 3.66 | 6.33 | 4.57 | 1.67 | 2.08 | 12.3 | 16.2 | 1.8 | 1.87 | 2.69 | 2.08 | 3.33 | 13.2 |
| COc1cnc2c(c1)C(=O)c1c-2n(CCCn2ccnc2)c(=O)c2cc(F)ccc12 | 0.141 | 1.63 | 0.352 | 0.327 | 0.128 | 0.297 | 3.11 | 1.01 | < 0.01 | 0.118 | < 0.01 | 0.0162 | < 0.01 | 0.0228 | 0.154 | 0.0221 | 0.0193 | > 100 |
| Cn1cc(C(=O)NCCC(=N)N)cc1NC(=O)C1=[N+](C)C=C(NC(=O)c2cccc(C(=O)NC3=CC(C(=O)Nc4cc(C(=O)NCCC(=N)N)cn4C)=[N+](C)C3)c2)C1 | – | > 100 | > 100 | > 100 | > 100 | > 100 | > 100 | > 100 | – | – | – | – | – | – | – | – | – | – |
| CCOC(=O)N1CCN(C=S)CC1 | > 100 | – | – | > 100 | > 100 | > 100 | – | > 100 | – | – | – | – | – | – | – | – | – | – |
| CCCCNc1nc(C#N)c(N)s1 | > 100 | > 100 | > 100 | > 100 | > 100 | > 100 | > 100 | > 100 | – | – | – | – | – | – | – | – | – | – |
| COc1cc(/C=C2/C(=O)N(C(=O)OCC(C)C)C(Cc3cc(OC)c(OC)c(C)c3OC)C(=O)N2Cc2ccccc2)c(OC)c(C)c1OC (configuration not stated) | > 100 | > 100 | > 100 | > 100 | > 100 | > 100 | > 100 | > 100 | – | – | – | – | – | – | – | – | – | – |
| CCN(CC)c1c(C(=O)/C=C/c2ccc(OC)cc2)c(-c2ccccc2)nn(C)c1=O | – | 58 | 63.6 | > 100 | 44.9 | 9.25 | 43.4 | 98.4 | – | – | – | – | – | – | – | – | – | – |
| COC1CC(OS(=O)(=O)c2ccc([N+](=O)[O-])cc2)C(OC(=O)c2ccccc2)C(C)O1 (configuration not stated) | > 100 | > 100 | > 100 | – | > 100 | > 100 | > 100 | > 100 | – | – | – | – | – | – | – | – | – | – |
